# Experimental data as given in patent publication US4375475A, “Substituted pyranone inhibitors of cholesterol synthesis” (Merck & Co., Inc., priority 1981, dated 1983).
# Where a name gives a salt, the structure may show the parent alone. Read-outs that look alike come from different tables or passages of the source.
# Columns and labels:
# [1] = target: T1, 3-hydroxy-3-methylglutaryl-coenzyme A reductase (Rattus norvegicus, UniProt P51639); test: method A: in vitro method of H. J. Knauss et al., inhibition of 50% of the enzymatic activity; format: biochemical; settings: compounds tested as the sodium salts of their corresponding hydroxy acid forms
# T1 construct: from tissue
# T1 sequence (P51639 1-887): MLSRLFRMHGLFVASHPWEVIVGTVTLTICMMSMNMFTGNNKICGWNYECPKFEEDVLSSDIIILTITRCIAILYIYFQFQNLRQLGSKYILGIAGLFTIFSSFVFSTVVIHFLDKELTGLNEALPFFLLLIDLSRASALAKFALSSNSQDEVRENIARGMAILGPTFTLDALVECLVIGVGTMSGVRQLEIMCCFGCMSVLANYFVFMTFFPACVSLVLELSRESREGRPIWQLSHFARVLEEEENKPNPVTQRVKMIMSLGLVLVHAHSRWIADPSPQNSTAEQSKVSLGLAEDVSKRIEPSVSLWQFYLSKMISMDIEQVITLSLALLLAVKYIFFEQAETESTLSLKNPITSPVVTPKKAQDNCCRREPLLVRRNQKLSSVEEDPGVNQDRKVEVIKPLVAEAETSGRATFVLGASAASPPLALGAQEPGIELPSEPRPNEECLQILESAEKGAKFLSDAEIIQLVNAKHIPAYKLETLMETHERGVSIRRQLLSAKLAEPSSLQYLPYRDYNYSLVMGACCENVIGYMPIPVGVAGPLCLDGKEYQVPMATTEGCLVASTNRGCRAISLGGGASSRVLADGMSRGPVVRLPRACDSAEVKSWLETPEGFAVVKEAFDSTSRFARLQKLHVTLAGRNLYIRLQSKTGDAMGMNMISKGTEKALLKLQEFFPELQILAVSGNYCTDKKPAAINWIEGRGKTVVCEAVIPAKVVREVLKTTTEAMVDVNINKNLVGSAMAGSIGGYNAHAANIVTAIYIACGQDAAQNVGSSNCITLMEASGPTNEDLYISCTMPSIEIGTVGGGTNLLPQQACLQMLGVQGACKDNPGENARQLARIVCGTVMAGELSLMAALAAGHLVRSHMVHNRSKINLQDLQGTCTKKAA
# Description: The inhibitory activity of these compounds for the biosynthesis of cholesterol has been measured by two methods. The experimental method A was the in vitro method of H. J. Knauss, et al., J. Biol. Chem., 234, 2835 (1959) and the activity was expressed as the molar concentration IC50 (M) necessary for the inhibition of 50% of the enzymatic activity. The experimental method B was the method of A. A. Kandutsch, et al., J. Biol. Chem., 248, 8403 (1973) for measuring the quantity of ^14 C-cholesterol biosynthesis from acetic acid-^14 C in mouse L cells. The activity is expressed for inhibition of 50% of the biosynthesis of cholesterol.
# [2] = target: T1, 3-hydroxy-3-methylglutaryl-coenzyme A reductase; settings: method A; values of Belgian Pat. No. 867,421; read-out: IC50 as reported in the cited Belgian patent; cited from earlier work
# mouse L cells = settings: method B, values of Belgian Pat. No. 867,421, read-out: IC50 (inhibition of 50% of the biosynthesis of cholesterol) as reported in the cited Belgian patent; cited from earlier work
Structure (SMILES),IC50 [1] [nM],IC50 [2] [nM],IC50 (mouse L cells) [nM]
CC[C@H](C)C(=O)O[C@H]1CCC=C2C=C[C@H](C)[C@H](CC[C@@H]3C[C@@H](O)CC(=O)O3)[C@H]21 [compactin],,~8,~8
"O=C1C[C@@H](O)C[C@H](CCc2c(Cl)cc(Cl)cc2OCc2ccccc2)O1 [Example 14, (+)-Trans-6-[2-(2,4-dichloro-6-phenylmethoxyphenyl)ethyl]-3,4,5,6-tetrahydro-4-hydroxy-2H-pyran-2-one]",68,,

# Continued, in another order:
IC50 [1] [nM],Structure (SMILES),IC50 [2] [nM],IC50 (mouse L cells) [nM]
15,"Cc1cc(C)cc(-c2cc(C)cc(C)c2C=CC2CC(O)CC(=O)O2)c1 (stereo not drawn) [6-[2-(3,3',5,5'-tetramethyl-[1,1'-biphenyl]-2-yl)ethenyl]-3,4,5,6-tetrahydro-4-hydroxy-2H-pyran-2-one]",,
7,"Cc1cc(C)c(C=CC2CC(O)CC(=O)O2)c(-c2ccc(F)c(C)c2)c1 (stereo not drawn) [6-[2-(4'-fluoro-3,3',5-trimethyl[1,1'-biphenyl]-2-yl)ethenyl]-3,4,5,6-tetrahydro-4-hydroxy-2H-pyran-2-one]",,
~13,"O=C(O)C[C@H](O)C[C@H](O)/C=C/c1c(Cl)cc(Cl)cc1-c1ccc(F)cc1 (relative stereo) [Example 43, (+)-(E)-(3R*,5S*)-7-(3,5-dichloro-4'-fluoro[1,1'-biphenyl]-2-yl)-3,5-dihydroxy-6-heptenoic acid, ammonium salt]",,
